pEC50: −log10 of the molar value.
Columns and labels:
β3-adrenergic receptor = target: T1, β3-adrenergic receptor (Homo sapiens, UniProt P13945); assay: Functional cellular cAMP (HTRF) assay, HEK293 cells expressing β3-ARs; format: cell-based
T1 construct: expressed in transfected cells; host or cells: HEK293
Protocol: (§1) The potency and maximal effect of vibegron and mirabegron for β3-adrenergic receptors and the selectivity for each […] receptor were determined. Functional cellular assays for vibegron and mirabegron activity were performed using Chinese hamster ovary (CHO) cells expressing β1- or β2-ARs and human embryonic kidney (HEK) 293 cells expressing β3-ARs. Cells were incubated with vibegron, mirabegron, or the appropriate control (isoproterenol for β1 and β3, procaterol for β2). Responses were quantified using homogeneous time-resolved fluorescence of cyclic adenosine monophosphate. Half-maximal effective concentration (EC50) and maximum response (Emax) values were determined by nonlinear least-squares regression analysis.

β2-adrenergic receptor = target: T2, β2-adrenergic receptor (Homo sapiens, UniProt P07550); assay: Functional cellular cAMP (HTRF) assay, CHO cells expressing β2-ARs; format: cell-based; details: relative to procaterol
T2 construct: expressed in transfected cells; host or cells: CHO
Protocol: as §1

[1] = system: β3-AR over β2-AR and β1-AR; details: cell based in vitro assays; cited from earlier work

T1 sequence (P13945 whole entry): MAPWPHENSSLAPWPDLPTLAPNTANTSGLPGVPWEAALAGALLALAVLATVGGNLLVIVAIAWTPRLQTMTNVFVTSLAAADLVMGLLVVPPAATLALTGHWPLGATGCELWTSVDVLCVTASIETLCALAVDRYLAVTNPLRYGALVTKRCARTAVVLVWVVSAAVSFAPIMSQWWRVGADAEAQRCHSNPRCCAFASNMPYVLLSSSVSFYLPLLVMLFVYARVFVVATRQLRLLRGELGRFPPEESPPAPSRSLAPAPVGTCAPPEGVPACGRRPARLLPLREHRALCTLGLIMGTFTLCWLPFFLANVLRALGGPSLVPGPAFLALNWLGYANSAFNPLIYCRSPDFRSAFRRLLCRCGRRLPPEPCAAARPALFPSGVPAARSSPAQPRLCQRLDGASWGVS
T2 sequence (P07550 whole entry): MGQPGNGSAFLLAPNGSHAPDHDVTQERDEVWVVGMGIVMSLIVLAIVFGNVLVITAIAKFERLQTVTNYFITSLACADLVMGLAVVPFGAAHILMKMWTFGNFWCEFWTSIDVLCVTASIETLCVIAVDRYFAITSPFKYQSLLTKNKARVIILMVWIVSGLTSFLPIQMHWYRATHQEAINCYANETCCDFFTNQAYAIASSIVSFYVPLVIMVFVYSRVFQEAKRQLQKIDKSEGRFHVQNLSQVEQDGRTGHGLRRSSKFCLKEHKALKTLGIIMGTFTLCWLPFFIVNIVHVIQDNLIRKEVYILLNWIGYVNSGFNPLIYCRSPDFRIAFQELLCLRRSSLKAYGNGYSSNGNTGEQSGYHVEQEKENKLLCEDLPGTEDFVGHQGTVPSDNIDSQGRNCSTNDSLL

In the case of O=C(Nc1ccc(C[C@@H]2CC[C@H]([C@H](O)c3ccccc3)N2)cc1)[C@@H]1CCc2nccc(=O)n21 [Vibegron, (6S)—N-[4-[[(2S,5R)-5-[(R)-hydroxy(phenyl)methyl]pyrrolidin-2-yl]methyl]phenyl]-4-oxo-7,8-dihydro-6H-pyrrolo[1,2-a]pyrimidine-6-carboxamide], the “β3-adrenergic activity relative to isoproterenol (% Activity)” value (β3-adrenergic receptor; 10 μM, HEK293 cells) was 104%, the Emax (β3-adrenergic receptor; HEK293, estimated by nonlinear least-squares regression, read-out: Emax (maximum response) at the β3-AR) was 99.2% and the pEC50 (β3-adrenergic receptor; HEK293 cells expressing β3-ARs, cAMP, read-out: Mean (SEM) EC50 at the β3-AR) was 8.67. The “Emax (maximum response) at the β3-AR” value (β3-adrenergic receptor; estimated by nonlinear least-squares regression) was ~100%, the “Potency at activating β3-ARs relative to mirabegron” value (β3-adrenergic receptor; ratio of mean EC50 values) was “approximately 5 times” and the “β2-adrenergic activity (% Activity)” value (β2-adrenergic receptor) was 2%. The “Selectivity for activation of β3-AR over β2-AR and β1-AR” value [1] was > 9,000 fold.
